Measured values from US20230233541A1, “SUBSTITUTED BENZAMIDES AS MODULATORS OF TREX1” (Constellation Pharmaceuticals, Inc., priority 2020, published 2023).

Columns and labels:
[1] = target: T1, human TREX2 (residues M44-A279) (Homo sapiens, UniProt Q9BQ50); assay: TREX2 Biochemical Assay (fluorescence assay, degradation of dsDNA substrate); conditions: 2.5 nM TREX2, 60 nM dsDNA substrate, 25 minutes at room temperature; read-out: hTREX2 EC50
T1 construct: human TREX2 (residues M44-A279, expressed in E. coli); His-Tev (His tag with TEV protease site) (N); made in house; host or cells: E. coli
T1 sequence (Q9BQ50 44-279 isoform Q9BQ50-1): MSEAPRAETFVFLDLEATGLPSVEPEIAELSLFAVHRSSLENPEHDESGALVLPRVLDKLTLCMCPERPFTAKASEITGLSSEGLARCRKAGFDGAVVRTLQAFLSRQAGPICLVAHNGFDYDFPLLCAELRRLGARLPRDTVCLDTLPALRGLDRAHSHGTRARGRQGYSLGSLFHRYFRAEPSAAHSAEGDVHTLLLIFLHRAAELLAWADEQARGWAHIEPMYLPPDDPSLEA
In short: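 His-Tev-tagged human TREX2 (M44-A279, E. coli-expressed) at 2.5 nM final, with 60 nM TEX615/quencher-labelled dsDNA in pH 7.4 Tris buffer with MgCl2 and 1.0% DMSO, 10-point dose-response, 25 min at room temperature, then EDTA quench. Fluorescence read at 615 nm (ex 570 nm). IC50 from four-parameter fit against pre-quenched and no-inhibitor controls.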

full length human TREX1 = target: T2, full length human TREX1 (Homo sapiens, UniProt Q9NSU2); assay: TREX1 Biochemical Assay (fluorescence assay, degradation of dsDNA substrate); conditions: 150 pM TREX1, 60 nM dsDNA substrate, 25 minutes at room temperature; read-out: hTREX1 EC50
T2 construct: N-terminally His-Tev tagged full length human TREX1; His-Tev (His tag with TEV protease site) (N); made in house; host or cells: E. coli
T2 sequence (Q9NSU2 1-314): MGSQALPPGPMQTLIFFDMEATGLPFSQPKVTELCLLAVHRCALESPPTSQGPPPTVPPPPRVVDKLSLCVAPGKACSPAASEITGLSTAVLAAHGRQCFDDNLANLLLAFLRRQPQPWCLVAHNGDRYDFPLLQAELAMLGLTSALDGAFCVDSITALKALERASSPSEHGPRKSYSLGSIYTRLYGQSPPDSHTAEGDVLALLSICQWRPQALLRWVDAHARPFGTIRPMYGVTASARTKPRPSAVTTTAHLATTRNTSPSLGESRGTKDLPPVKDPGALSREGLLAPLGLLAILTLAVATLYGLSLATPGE
In short: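 E. coli-expressed His-Tev-tagged full-length TREX1 (150 pM) with 60 nM quenched-fluorophore dsDNA in Tris pH 7.4, 150 mM NaCl, 100 mM MgCl2, 1% DMSO, 25 min room temperature, 10-point dose-response. EDTA stop; fluorescence 615 nm (ex 570 nm); IC50 from four-parameter fit against pre-quenched and no-inhibitor controls.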

Row | EC50 [1] [µM] | EC50 (full length human TREX1) [µM] | SMILES
1 | 10 to 100 | < 0.1 | O=C(O)CC[C@@H](c1ccccc1Cl)N(Cc1cccnc1)C(=O)c1cc(F)cc(F)c1 [Compound 244]
2 | 10 to 100 | 1 to 10 | O=C(O)CC[C@H](c1ccccc1Cl)N(Cc1cccnc1)C(=O)c1cc(F)cc(F)c1 [Compound 245]
3 | 10 to 100 | 0.1 to 1 | O=C(O)c1ccc(CN(Cc2cccc(Cl)c2Cl)C(=O)c2cc(F)cc(F)c2)c(O)n1 [Compound 247]
4 | 10 to 100 | < 0.1 | NCCC[C@@H](c1cccc(Cl)c1Cl)N(Cc1cccnc1)C(=O)c1cc(F)cc(F)c1 [Compound 248]
5 | 10 to 100 | 1 to 10 | NCCC[C@H](c1cccc(Cl)c1Cl)N(Cc1cccnc1)C(=O)c1cc(F)cc(F)c1 [Compound 249]
6 | 10 to 100 | < 0.1 | CC[C@@H](c1cccc(Cl)c1OC)N(Cc1cnc(C(=O)O)c(N)c1)C(=O)c1cc(F)cc(F)c1 [Compound 250]
7 | 10 to 100 | < 0.1 | CC[C@@H](c1cccc(OC)c1Cl)N(Cc1cnc(C(=O)O)c(N)c1)C(=O)c1cc(F)cc(F)c1 [Compound 252]
8 | 1 to 10 | < 0.1 | CC[C@H](c1cccc(Cl)c1Cl)N(Cc1ccc(C(=O)O)nc1)C(=O)c1cc(F)cc(F)c1 [Compound 254]
9 | < 1 | < 0.1 | CC[C@H](c1cccc(Cl)c1Cl)N(Cc1ccc(C(=O)O)nc1)C(=O)c1cc(F)cc(F)c1 [Compound 255]
10 | 10 to 100 | < 0.1 | O=C(O)c1ncc(CN(Cc2cccc(Cl)c2Cl)C(=O)c2cc(F)cc(F)c2)cc1O [Compound 257]
11 | > 100 | 1 to 10 | CS(=O)(=O)NC(=O)c1ccc(CN(Cc2cccc(Cl)c2Cl)C(=O)c2cccc(F)c2)cn1 [Compound 259]
12 | 1 to 10 | < 0.1 | O=C(c1cc(F)cc(F)c1)N(Cc1cccnc1)[C@H](CCO)c1ccc(Cl)cc1Cl [Compound 260]
13 | 10 to 100 | 0.1 to 1 | O=C(c1cc(F)cc(F)c1)N(Cc1cccnc1)[C@@H](CCO)c1ccc(Cl)cc1Cl [Compound 261]
14 | 1 to 10 | 0.1 to 1 | O=C(c1cc(F)cc(F)c1)N(Cc1ccc(-c2noc(=O)[nH]2)nc1)Cc1cccc(Cl)c1Cl [Compound 262]
